From US20070060549A1, “COMBINATION THERAPIES EMPLOYING ACE INHIBITORS AND USES THEREOF FOR THE TREATMENT OF DIABETIC DISORDERS” (priority 2004, published 2007)

Key:
[1] = test system: hypertensive patients with type 2 diabetes; details: 8 weeks
Procedure: Summary of Study Design—The phase II study was a randomized, parallel group, cross-over, double-blinded to study medication, placebo-controlled comparison of P5P BID at total daily doses of 100, 300 or 1000 mg alone and in combination with 20 mg lisinopril given once daily (QD). In order to protect against antihypertensive and metabolic carry-over effects of lisinopril, 160 patients were randomized in 2 different treatment sequences. Patients randomized in the first treatment sequence received an 8-week treatment with lisinopril 20 mg and P5P (or placebo) and then an 8-week treatment with P5P alone (or placebo). […]
Mean trough sitting and standing BP were measured at each visit. […]
Ambulatory blood pressure (ABP) was measured using a SpaceLabs Medical ABPM Monitor Model 90207 (SpaceLabs Medical Inc., Redmond, Wash.). […] Following the initiation of two manual readings, a third manual reading was initiated and began the 24-hour monitoring period. […] A manual reading was initiated at the end of the 24-hour period to ensure that there was at least one data point in the last hour of the 24-hour period. Subjects were instructed to initiate a manual reading should they be late for their scheduled clinic appointment to ensure that a reading in the last hour of the 24-hour period was not missed. On completion of the readings, the ABPM device was removed from the subject. […]

rats [2] = assay: 14-day oral administration of P5P to rats; assay type: in vivo, rat; details: orally 50 mg/kg for 14 days
Procedure: (§1) As a prelude to human clinical studies, the toxicology of P5P was assessed by conventional means using two animal species, rats and dogs. […] Long term studies, 13-week oral toxicity in dogs, and 26-week oral toxicity in rats, were completed.

rats [3] = assay: 26-week oral toxicity in rats; assay type: in vivo; details: 26-week rat study
Procedure: as §1

rat = assay: Acute toxicity evaluation of P5P in the rat; assay type: in vivo; details: doses up to 5 g/kg
Procedure: as §1

patients [4] = assay: Phase I multi-dose tolerance study of P5P; assay type: in vivo, human
dogs [5] = assay: 13-week oral toxicity in dogs; assay type: in vivo; details: 13-week dog study
Procedure: as §1

[6] = test system: diabetic hypertensive patients; assay: Phase II clinical study of P5P: glycated hemoglobin (HbA1c); assay type: in vivo, human; details: patients with clinically elevated HbA1c at start; 250, 500, 750 mg P5P two weeks each, then 4-week washout
Procedure: In a phase II clinical study, conducted in accordance with generally accepted clinical practice standards, diabetic hypertensive patients were treated with P5P. Glucose control was determined by measuring glycated hemoglobin levels (HbA1c). Four weeks prior to treatment, patients ceased all antihypertensive therapy. Following the washout period, baseline HbA1c measurements were taken. Patients were than treated with 250 mg, 500 mg, and 750 mg of P5P for two weeks at each dosage. P5P treatment was then discontinued for 4 weeks. Following the washout period, HbA1c measurements were taken.

patients [7] = assay: Phase I single dose tolerance study of P5P; assay type: in vivo, human
Procedure: (§2) In a Phase I single dose tolerance study, conducted in accordance with generally accepted clinical practice standards, groups of six patients were tested at 15 mg/kg, 30 mg/kg, and 60 mg/kg (enteric coated tablets). […] Four subjects in the 60 mg/kg dose group reported a total of 10 adverse events including diarrhea, bradycardia, bubbly stomach, flatulence, and headaches that were mild in severity.

[8] = Phase I pharmacokinetics of P5P; assay type: in vivo, human; details: Phase I dose levels; small numbers of subjects, large inter-subject variability
Procedure: as §2

dogs [9] = assay: Acute toxicity evaluation of P5P in dogs; assay type: in vivo, dog; details: doses up to 100 mg/kg
Procedure: as §1

| SMILES | reduction in MDASBP from baseline ([1]; lisinopril 20 mg/dose and placebo, p=0.002) [mmHg] | reduction in MDADBP from baseline ([1]; lisinopril 20 mg/dose plus placebo, p=0.005) [mmHg] | signs of toxicity (rats [2]) | findings of toxicological significance (rats [3]; any dose level (50, 100/175, 175/325 mg/kg)) | findings in high dose group (rats [3]; high dose group) | acute toxicity (rat) | tolerance (patients [4]; multi-dose 30 mg/kg, one patient withdrew due to vomiting and diarrhea) | tolerance (patients [4]; multi-dose 60 mg/kg) | drug related toxicities (dogs [5]; 10 and 25 mg/kg) | recovery (dogs [5]; 50-60 mg/kg group, recovery phase) | findings in high dose group (dogs [5]; 50-60 mg/kg, all other findings mild to moderate) | reduction in HbA1c levels as compared to baseline [6] [%] | adverse events (patients [7]; single dose 15 mg/kg, enteric coated tablets, six patients) | adverse events (patients [7]; single dose 30 mg/kg, enteric coated tablets, six patients) | subjects reporting adverse events (patients [7]; single dose 60 mg/kg, enteric coated tablets, six patients) | total adverse events (patients [7]; single dose 60 mg/kg, diarrhea, bradycardia, bubbly stomach, flatulence, headaches, mild in severity) | dose-linearity of pharmacokinetics [8] | acute toxicity (dogs [9]) |
| --- | --- | --- | --- | --- | --- | --- | --- | --- | --- | --- | --- | --- | --- | --- | --- | --- | --- | --- |
| NCCCC[C@H](N[C@@H](CCc1ccccc1)C(=O)O)C(=O)N1CCC[C@H]1C(=O)O [lisinopril] | 7.5 | 4.1 |  |  |  |  |  |  |  |  |  |  |  |  |  |  |  |  |
| Cc1ncc(COP(=O)(O)O)c(C=O)c1O [P5P, pyridoxal-5′-phosphate] |  |  | no signs of toxicity | No findings of toxicological significance | reversible reduction in body weight gain and increased incidence of stomach microulcers | no significant toxicity | five of six patients treated with 30 mg/kg P5P tolerated the medication well | all 6 treated patients experiencing a variety of mild gastrointestinal symptoms | no drug related toxicities were observed | recovered almost completely | anorexia and body weight loss | 5.4 | No adverse events were reported | One subject in the 30 mg/kg dose group experienced events of dizziness and sleepiness | Four | 10 | did not demonstrate dose-linearity | no significant toxicity |
